Measured values: patent US20100104628A1, “METHOD OF TREATING NEUROBLASTOMA” (priority 2007, published 2010)
Values joined by “and” are separate entries in the source; they are usually repeats but may differ in a detail not shown here. Equal values may be shown once. Read-outs that look alike come from different tables or passages of the source.

How the values were obtained:
[1] = Stability / reaction kinetics by proton NMR (half-life); assay type: physicochemical
Excerpt: Proton NMR was used to determine the half-lives for chloro- and bromomethyl-MIBG (Table 1). These analogs react with nucleophiles via an SN2 mechanism; therefore, the rate of the reaction depends on the strength and concentration of the nucleophile as well as the nature of the leaving group. Thus, the half-lives of the analogs are predictably longer in buffer than they are in buffer with added glutathione (a relatively strong nucleophile) and, under the same conditions, the bromo analog (better leaving group) reacts faster than the chloro analog.

[2] = target: T1, NET (Homo sapiens, UniProt P23975); assay: NET competitive binding assay ([125I]MIBG displacement, SK-N-SH cells); details: 5 μM test compound, 2 hr incubation
T1 construct: endogenous in cells; host or cells: SK-N-SH neuroblastoma cells
Description: An assay to assess binding of various MIBG-analogs to the NET was performed by published methods (Vaidynathan et al, Nucl. Med. Commun. 25:947-955 (2004), Vaidynathan et al, Bioorg. Med. Chem. 12:1649-1656 (2004), Vaidynathan et al, Bioconjugate Chem. 12:798-806 (2001), Vaidynathan et al, Eur. J. Nucl. Med. Mol. Imaging 31:1362-1370 (2004)). In brief, neuroblastoma SK—N—SH cells (moderate levels of NET) were treated with [^125I]MIBG and with increasing concentrations of unlabeled MIBG or MIBG-analogs. At the end of a 2 hr incubation and appropriate work-up, the cell-bound radioactivity was counted. Total cell-bound radioactivity minus non-specific cell-bound radioactivity gave a value for specific binding which was plotted in FIG. 9 against the concentration of test compounds. At 5 μM, cold MIBG displaced “100%” of the labeled-MIBG (i.e., “zero” cell-bound radioactivity). At 5 μM, chloromethyl-MIBG displaced 83%; the disulfide MIBG-SS-ethyl and the ester MIBG-phenylbutyrate displaced 50-55%; and hydroxymethyl-MIBG displaced 27%.

[3] = system: SK—N-BE(2c) (high NET); assay: Glutathione depletion in vitro, SK-N-BE(2c); assay type: cell-based
Description: (§1) The NB cell line SK—N-BE(2c) (high net) was treated with MIBG, MIBG-disulfide dimer (MIGB-S—S-MIBG), chloromethyl-MIBG (cmMIBG), and BSO. For comparison, the human breast cancer line MCF7 (no NET) was treated with chloromethyl-MIBG and BSO. At specific times, intracellular glutathione in drug-treated cells was determined relative to that in untreated cells (control).
SK—N-BE(2c) (high NET) cells were treated with a single concentration of chloromethyl-MIBG (25 μM at t=0). Glutathione concentrations in treated and untreated cells were measured at t=0.5, 1, 2, 3 and 4 hrs. Glutathione levels in drug-treated cells progressively fell, with a concentration 50% that of control at t 4 hrs (FIG. 10B).
(§2) Cells were exposed to 5 μM chloromethyl-MIBG (cmMIBG), 25 μM BSO and a combination of 5 μM chloromethyl-MIBG+25 μM BSO (both) for 7 hrs. Compared to controls, chloromethyl-MIBG alone depleted glutathione by about 30% in SK—N—Be(2c) cells and 8% in MCF7. BSO, as expected, depleted MCF7 and SK—N—Be(2c) by similar amounts (42 and 54% of controls, respectively). In combination studies, chloromethyl-MIBG+BSO depleted levels by about 85% in the SK—N—Be(2c) cells and had much less effect on the MCF7 cells with glutathione reduced by 49% relative to controls.

[4] = system: MCF7 (no NET); assay: Glutathione depletion in vitro, MCF7; assay type: cell-based, human; details: 5 μM chloromethyl-MIBG, 7 hrs
Description: as §1, §2

[5] = system: SK-N-BE(2c) (NET ++++); assay: cells; assay type: cell-based
[6] = system: SK-N-MC (NET ++); assay: Cytotoxicity, MTT assay, SK-N-MC; assay type: cell-based; details: 24 hr assay, 1% EtOH
[7] = system: MCF7 (NET 0); assay: in vitro; assay type: cell-based, human
[8] = system: IMR32 (NET 0/+); assay: Cytotoxicity, MTT assay, IMR32; assay type: cell-based; details: 24 hr assay, 1% EtOH
[9] = system: SK-N-SH (NET ++); assay: Cytotoxicity, MTT assay, SK-N-SH; assay type: cell-based; details: read-out: Cytotoxicity IC50
[10] = Maximum tolerated dose (MTD) study in mice; assay type: in vivo
Description: The MTD study utilized 4 groups of 5 HRLN female nu/nu mice. Mice in each group were injected i.v. with a single dose of chloromethyl-MIBG in 1% DMSO in water [5, 10, 15, or 20 mg/kg (drug/animal)]. Drug solutions were made fresh at room temperature and injections were completed within 20 minutes of making the drug solution (under these conditions, the half-life of chloromethyl-MIBG was estimated to be >10 hrs). The dosing volume was 0.20 mL/20 g mouse (adjusted accordingly for body weight). Animals were followed for 21 days post-injection; body weight was monitored daily for 5 days and then biweekly. The “endpoint MTD” was defined as a mean weight loss of >20% or death of >10% of animals in a group.

[11] = 24 hr assay, 1% EtOH, read-out: Cytotoxicity IC50
[12] = 24 hr assay, single agent, 1% DMSO, read-out: Cytotoxicity IC50
[13] = 48 hr assay (24 h exposure + 24 h recovery), Table 3, read-out: Cytotoxicity IC50
[14] = 48 hr assay, + 1.5 μM desipramine (40 min pre-treatment, then co-incubation), read-out: Cytotoxicity IC50, NET inhibition experiment
[15] = 48 hr assay, single agent, Table 4, read-out: Cytotoxicity IC50
[16] = 48 hr assay, without desipramine, read-out: Cytotoxicity IC50, NET inhibition experiment
[17] = 48 hr assay (24 h exposure + 24 h recovery), Table 3
[18] = groups dosed at 10, 15 and 20 mg/kg i.v.

T1 sequence (P23975 whole entry): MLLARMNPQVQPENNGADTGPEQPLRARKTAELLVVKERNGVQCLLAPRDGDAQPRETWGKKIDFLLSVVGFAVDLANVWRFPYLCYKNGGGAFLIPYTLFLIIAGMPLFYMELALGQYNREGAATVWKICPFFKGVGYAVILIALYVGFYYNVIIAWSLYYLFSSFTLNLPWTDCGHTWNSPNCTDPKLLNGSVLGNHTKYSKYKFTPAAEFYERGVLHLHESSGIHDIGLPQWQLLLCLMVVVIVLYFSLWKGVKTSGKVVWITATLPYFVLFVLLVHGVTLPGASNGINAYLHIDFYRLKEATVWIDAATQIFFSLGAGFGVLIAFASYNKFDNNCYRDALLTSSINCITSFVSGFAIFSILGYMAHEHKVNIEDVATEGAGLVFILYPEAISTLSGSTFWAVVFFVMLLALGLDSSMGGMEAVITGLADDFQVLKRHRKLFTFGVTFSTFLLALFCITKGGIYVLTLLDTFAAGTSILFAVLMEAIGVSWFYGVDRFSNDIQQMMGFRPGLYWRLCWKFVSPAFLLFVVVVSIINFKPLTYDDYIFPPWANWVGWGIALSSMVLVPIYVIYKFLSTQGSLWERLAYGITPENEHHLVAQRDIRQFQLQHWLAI

In the case of `N=C(N)NCc1ccc(CCl)c(I)c1` [Chloromethyl-MIBG], the “half-life of drug solution” value ([1]; 1% DMSO in water, room temperature, estimated) is reported as greater than 10 h, the Half-life ([1]; 37° C., pH 7.4, BisTris buffer, 5% DMSO) is reported as 9.67 ± 0.417 h and the “Half-life w/10 eq GSH” value ([1]; 37° C., pH 7.4, BisTris buffer, 5% DMSO, 10 eq GSH) is reported as 50.6 ± 3.2 s. For the same compound, the “displacement of [125I]MIBG (specific cell-bound radioactivity)” value [2] was 83%, the “glutathione depletion compared to controls” value ([3]; 5 μM chloromethyl-MIBG, 7 hrs) was “about 30%” and the “glutathione concentration relative to control” value ([3]; 25 μM at t=0, measured at 4 hrs) was 50%. The “glutathione depletion compared to controls” value [4] was 8%, the IC50 [5, 11] was 5 µM and the IC50 [5, 12] was 5.7 ± 1.5 µM. It also gave an IC50 [5, 13] of 4.63 ± 1.58 µM, an IC50 [5, 14] of 14.3 ± 1.7 µM and an IC50 [5, 15] of 4.6 ± 1.6 µM. The IC50 [5, 16] was 3.2 ± 0.6 µM, the “increase in IC50 in presence of desipramine” value ([5]; with vs without desipramine) was roughly 5 fold and the IC50 [6] was 25 µM. The IC50 [7, 11] was 50 µM, the IC50 [7, 12] was 56.9 ± 6.2 µM and the IC50 [7, 13] was 14.3 ± 2.13 µM. It also gave an IC50 [7, 14] of 20.2 ± 1.9 µM, an IC50 [7, 15] of 14.3 ± 2.1 µM and an IC50 [7, 16] of 19.8 ± 1.3 µM. The IC50 [8] was 63 µM, the IC50 [9, 17] was 18.4 ± 9.1 µM and the IC50 ([9]; 48 hr assay, single agent, Table 4) was 18.4 ± 9.1 µM. For the same compound, the “animal deaths over the course of the study” value ([10]; 5-20 mg/kg single i.v. dose, 21 days) was “no animal deaths”, the MTD ([10]; HRLN female nu/nu mice, single i.v. dose, 21 days follow-up) was greater than 20 mg/kg and the “adverse signs upon drug injection” value [10, 18] was “signs of hypoactivity, labored breathing, darkening of skin color, and/or seizures/tremors”. The “time for adverse symptoms to go away” value [10, 18] was no more than 30 s.

With `N=C(N)NCc1cccc(I)c1` [MIBG, meta-iodobenzylguanidine] the IC50 [5, 12] was 167 µM and 200 µM, the IC50 [5, 13] was 142 ± 21 µM and the IC50 [7, 12] was 227 µM and 232 µM. For the same compound, the IC50 [7, 13] was 137 ± 27 µM and the IC50 [9, 17] was 190 ± 22 µM.

Compound `CCSSCc1ccc(CNC(=N)N)cc1I` [MIBG-SS-ethyl] has an IC50 [5, 13] of 27.4 ± 4.09 µM and an IC50 [7, 13] of 24.2 ± 7.21 µM.
